These are literature values, as cited in patent publication US20040082521A1, “Novel formulations of digitalis glycosides for treating cell-proliferative and other diseases” (Azaya Therapeutics Inc., priority 2002, published 2004).

In series [1] the test system is various cancer cell lines.
For series [2], the system named is FGF-2 release from DU145 cells. To be noted: 0.1 ng/mL.
In series [3] the test system is FGF-2 release from PC3 cells. The conditions noted are these: 0.1 ng/mL.
Series [4] has as its system androgen-independent human prostate cancer cell lines. To be noted: for apoptosis: in vitro.
Series [5] relates to human malignant cell lines. To be noted: for growth and apoptosis: non-toxic concentrations.

On to `CO[C@H]1C[C@H](O[C@H]2CC[C@@]3(C)[C@H](CC[C@@H]4[C@@H]3CC[C@]3(C)[C@@H](C5=CC(=O)OC5)[C@@H](OC(C)=O)C[C@]43O)C2)O[C@@H](C)[C@@H]1O` [Oleandrin, 16b-acetoxy-3b-[(2,6-dideoxy-3-0-methyl-a2-L-arabino-hexopyranosyl)oxy]14-hydroxy-5β, 14β-card-20(22)-enolide], for which the “AP-1 activation induced by TNF and other agents” value in the series on AP-1 was “blocked”. The “TNF-induced activation of c-Jun NH2terminal kinase” value in the series on c-Jun NH2terminal kinase is recorded as “inhibited”. In series [1], the anti-cancer activities result is reported as “significant anti-cancer activities”. Moreover, the “inhibition of FGF-2 release” value in [2] is reported as 49.9%; in series [3], 45.7%. Besides, the caspase activation result in series [4] (cleavage of poly (ADP-ribose) polymerase, hydrolysis of DEVD-pNA) is listed as “promoted caspase activation”. Moreover, the apoptosis entry in [4] is reported as “induce apoptosis”. Besides, the “elimination from the body” value (in vivo) is on record as “one to two”. The “distribution in the body” value (when ingested) is “widely distributed in the body”. Also, the “TNF-induced activation of NF-κB” value in the series on NF-κB (TNF-induced) is recorded as “blocked”. Further, the “NF-κB activation induced by phorbol ester and lipopolysaccharide” value in the series with NF-κB (phorbol ester and lipopolysaccharide) is listed as “blocked”. In addition, the “NF-κB-dependent reporter gene transcription activated by TNF” value in the series with NF-κB (reporter gene) is on record as “suppressed”. Besides, the cell-killing potency result in the series on human cancer cells (comparison Oleandrin vs water extract) is given as “greater than that of the water extract”. The cell killing entry in the series on human cancer cells (human cancer cells) is recorded as “able to induce cell killing”.

In the case of `C[C@@H]1O[C@@H](O[C@H]2C[C@@H](O)[C@]3(CO)[C@H]4[C@H](O)C[C@]5(C)[C@@H](C6=CC(=O)OC6)CC[C@]5(O)[C@@H]4CC[C@]3(O)C2)[C@H](O)[C@H](O)[C@H]1O` [Ouabain, reference compound], in series [4], the apoptosis entry was “induce apoptosis”.

Consider `CO[C@@H]1C[C@H](O[C@H]2CC[C@@]3(C)[C@H](CC[C@@]45O[C@@]46CC[C@H](C4=CC(=O)OC4)[C@@]6(C)CC[C@H]35)C2)O[C@H](C)[C@@H]1O` [adynerin], for which the anti-cancer activities result in [1] is listed as “significant anti-cancer activities”.

For the compound `C[C@H]1O[C@@H](O[C@H]2[C@@H](O)C[C@H](O[C@H]3[C@@H](O)C[C@H](O[C@H]4CC[C@@]5(C)[C@H](CC[C@@H]6[C@@H]5CC[C@]5(C)[C@@H](C7=CC(=O)OC7)CC[C@]65O)C4)O[C@@H]3C)O[C@@H]2C)C[C@H](O)[C@@H]1O` [digitoxin], the apoptosis-inducing effect result in [5] (in vitro, digitoxin vs digoxin) is “more potent for digitoxin than for digoxin”. Moreover, the growth and apoptosis result in [5] was “inhibits growth and induce apoptosis”.

Consider `C[C@H]1O[C@@H](O[C@H]2[C@@H](O)C[C@H](O[C@H]3[C@@H](O)C[C@H](O[C@H]4CC[C@@]5(C)[C@H](CC[C@@H]6[C@@H]5C[C@@H](O)[C@]5(C)[C@@H](C7=CC(=O)OC7)CC[C@]65O)C4)O[C@@H]3C)O[C@@H]2C)C[C@H](O)[C@@H]1O` [digoxin, reference compound], for which the apoptosis entry in series [4] is “induce apoptosis”. Besides, the growth and apoptosis result in [5] is “inhibits growth and induce apoptosis”.

As to `C[C@H]1[C@H](C)CC[C@]2(C(=O)O)CC[C@]3(C)C(=CC[C@@H]4[C@@]5(C)CC[C@H](O)C(C)(C)[C@@H]5CC[C@]43C)[C@H]12` [ursolic acid], the anti-cancer activities result in [1] is “significant anti-cancer activities”.
